Assay in all cases: NCI-60 cell line screen, 48 h
Test [1] deals with COLO 205.
Test [2] has as its system HCT-116.
Test [3] deals with HL-60.
The subject of test [4] is K562.
The subject of test [5] is MCF7.
Test [6] concerns Malme-3M.
Test [7] has as its system NCI-H226.
Test [8] has as its system NCI-H460.
Test [9] concerns NCI-H522.
Test [10] concerns OVCAR-5.
The test system of test [11] is PC-3.
Test [12] concerns SF-295.
Test [13] deals with SF-539.
The test system of test [14] is SK-MEL-2.
In test [15] the test system is SN12C.
Test [16] deals with SNB-19.
Test [17] concerns SW-620.
Test [18] has as its system U-251.
In test [19] the test system is UACC-257.
In test [20] the test system is UO-31.

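Each compound was tested at five concentrations against cells in 96-well plates for 48 hours. GI50: concentration for 50% inhibition of growth.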 Calls of active or inactive are those of the source. No stated cut-off is given here; in the data, active = GI50 up to about 1.1 µM and inactive = higher.

Take `COc1cccc(-c2cc(O)c3cc(N4CCCC4)ccc3n2)c1`: the GI50 in test [1] is < 0.001 µM (active); in test [2] it was < 0.001 µM (active); in test [3], < 0.001 µM (active); in [4], < 0.001 µM (active); in [5], 0.0394 µM (active); in test [6], < 0.001 µM (active). The GI50 was < 0.001 µM (active) in [7]; < 0.001 µM (active) in test [8]; < 0.001 µM (active) in test [9]; 0.00328 µM (active) in [10]; < 0.001 µM (active) in test [11]; < 0.001 µM (active) in [12]. Also, the GI50 in [13], in [14], in test [15], in test [16], in test [17] and in [18] was < 0.001 µM (active) each time. In addition, the GI50 in [19] and in test [20] was < 0.001 µM (active) each time.

On to `CN(C)c1ccc(/C=N/c2ccc(-c3nc4ccccc4s3)cc2)cc1`, for which the GI50 was 23.1 µM (inactive) in test [1]; 33 µM (inactive) in test [2]; 0.0408 µM (active) in test [3]; 28.8 µM (inactive) in [4]; < 0.01 µM (active) in test [5]; 31.6 µM (inactive) in test [6]. Moreover, the GI50 in test [7] is 32 µM (inactive); in test [8], 27.4 µM (inactive); in test [9] it was 18.1 µM (inactive); in test [10], 40.2 µM (inactive); in test [11], 22.4 µM (inactive); in test [12], 4.54 µM (inactive). For the same compound, the GI50 in test [13] is 52.8 µM (inactive); in [14], 22.9 µM (inactive); in test [15], 36.1 µM (inactive); in test [16], 57.9 µM (inactive); in [17], 22.9 µM (inactive); in [18], 29.2 µM (inactive). The results for the GI50 in test [19] and in [20] were 28 µM (inactive) and 43.8 µM (inactive), respectively.

Regarding `CCCC(CCC(N)=O)(CCC(N)=O)[N+](=O)[O-]`, the GI50 in test [1], in test [2], in test [3], in [4], in [5] and in [6] was > 100 µM (inactive) throughout. Also, the GI50 in test [7] was > 100 µM (inactive); in [8], > 100 µM (inactive); in [9], 26.5 µM (inactive); in test [10], > 100 µM (inactive); in test [11] it was > 100 µM (inactive); in [12] it was > 100 µM (inactive). For the same compound, the GI50 in [13], in test [14], in test [15], in [16], in [17] and in test [18] was > 100 µM (inactive) in each case. Besides, the GI50 in test [19] and in test [20] was > 100 µM (inactive) each time.

`Cc1ccc(S(=O)(=O)N2CC(CCN)c3ccccc32)cc1` (stereo not given): the GI50 was 4.06 µM (inactive) in test [1]; 2.27 µM (inactive) in [2]; > 100 µM (inactive) in [3]; 4.35 µM (inactive) in test [4]; 1.47 µM (inactive) in test [5]; 4 µM (inactive) in [6]. Moreover, the GI50 in [7] was 2.45 µM (inactive); in test [8] it was 5.08 µM (inactive); in test [9] it was 5.87 µM (inactive); in [10] it was 4.43 µM (inactive); in test [11], 3.64 µM (inactive); in [12], 4.56 µM (inactive). For the same compound, the GI50 in test [13] was 3.17 µM (inactive); in test [14], 4.28 µM (inactive); in [15] it was 2.72 µM (inactive); in test [16], 4.97 µM (inactive); in [17] it was 4.34 µM (inactive); in test [18] it was 3.72 µM (inactive). For the same compound, the GI50 is 4.78 µM (inactive) in test [19] and 4.61 µM (inactive) in test [20].

In the case of `O=C(c1ccc(-c2ccccc2)cc1)N(Cc1cccnc1)C(=S)N(Cc1cccnc1)C(=O)c1ccc(-c2ccccc2)cc1`, the GI50 in [1] was > 100 µM (inactive); in [2], 63.8 µM (inactive); in [3] it was 24.5 µM (inactive); in [4] it was 0.394 µM (active); in test [5], 41.6 µM (inactive); in test [6], > 100 µM (inactive). Moreover, the GI50 in [7] was 76.2 µM (inactive); in test [8], > 100 µM (inactive); in [9], > 100 µM (inactive); in [10] it was > 100 µM (inactive); in test [11], > 100 µM (inactive); in test [12], > 100 µM (inactive). The GI50 in test [13], in test [14], in test [15], in [16], in [17] and in test [18] was > 100 µM (inactive) in each case. Besides, the GI50 in test [19] was > 100 µM (inactive); in [20] it was 51.9 µM (inactive).

For `COc1cc(C2CC(C)(N3CCCC3)Oc3cc4c(cc32)OCO4)cc(OC)c1OC` (stereo not given), the GI50 is 2.9 µM (inactive) in [1]; 0.299 µM (active) in test [2]; 0.13 µM (active) in [3]; 0.0371 µM (active) in test [4]; 0.0925 µM (active) in test [5]; 0.21 µM (active) in test [6]. The GI50 is 4.69 µM (inactive) in test [7]; 0.288 µM (active) in [8]; 0.2 µM (active) in test [9]; > 100 µM (inactive) in [10]; 0.0889 µM (active) in test [11]; 0.0762 µM (active) in [12]. The GI50 in test [13] was 0.215 µM (active); in test [14] it was 0.408 µM (active); in [15] it was 0.288 µM (active); in test [16], 0.277 µM (active); in test [17], 0.167 µM (active); in test [18], 0.279 µM (active). The figures for the GI50 in test [19] and in test [20] were 0.13 µM (active) and 0.624 µM (active), respectively.

With `Cc1occc1C(=S)Nc1ccc(Cl)c(/C=N/OC(C)C)c1`, the GI50 in [1] was 16.9 µM (inactive); in test [2], 20.4 µM (inactive); in [3] it was 26.7 µM (inactive); in test [4] it was 29.7 µM (inactive); in [5] it was 19.1 µM (inactive); in test [6] it was 19.8 µM (inactive). Further, the GI50 in [7] is 18.2 µM (inactive); in [8] it was 21 µM (inactive); in [9], 12.7 µM (inactive); in test [10], 21 µM (inactive); in test [11], 24.9 µM (inactive); in test [12], 18.3 µM (inactive). The GI50 was 16.7 µM (inactive) in test [13]; 19.2 µM (inactive) in test [14]; 16.8 µM (inactive) in [15]; 27.1 µM (inactive) in test [16]; 20.9 µM (inactive) in test [17]; 19.5 µM (inactive) in test [18]. In addition, the GI50 in [19] was 22 µM (inactive); in test [20] it was 19.4 µM (inactive).

For `CC[C@@H]1CC[C@@H]2[C@H](CC[C@]3(C)[C@@H](OC(C)=O)CC[C@@H]23)[C@H]1C(=O)OC`, the GI50 in test [1] was 16 µM (inactive); in test [2], 17.9 µM (inactive); in [3] it was 13.3 µM (inactive); in [4], 20 µM (inactive); in test [5] it was 25 µM (inactive); in test [6], 17.3 µM (inactive). Further, the GI50 in test [7] is 18.8 µM (inactive); in [8] it was 23 µM (inactive); in test [9] it was 27.2 µM (inactive); in test [10], 23.1 µM (inactive); in test [11], 23.7 µM (inactive); in test [12], 21 µM (inactive). The GI50 in test [13] is 19.2 µM (inactive); in test [14], 20.1 µM (inactive); in test [15] it was 25.2 µM (inactive); in test [16], 25.4 µM (inactive); in [17], 21.8 µM (inactive); in [18], 21.2 µM (inactive). Also, the GI50 in [19] was 25.3 µM (inactive); in test [20], 33.7 µM (inactive).

Turning to `C=CCNC(=S)N/C=C(\C#N)C(N)=O`, the GI50 in test [1], in test [2], in test [3], in test [4], in test [5] and in [6] was > 100 µM (inactive) each time. Also, the GI50 in test [7], in [8], in [9], in test [10], in test [11] and in test [12] was > 100 µM (inactive) in each case. Moreover, the GI50 in test [13], in [14], in [15], in test [16], in [17] and in test [18] was > 100 µM (inactive) throughout. Moreover, the GI50 in test [19] and in test [20] was > 100 µM (inactive) in each case.

On to `Nc1c(C(=O)c2ccc(Cl)c(Cl)c2)[nH]c(NCc2ccccc2)c1C(=S)Nc1ccccc1`, for which the GI50 in test [1] was 1.78 µM (inactive); in [2], 3.48 µM (inactive); in test [3] it was 19.1 µM (inactive); in test [4], 3.32 µM (inactive); in test [5], 2.47 µM (inactive); in [6], 3.13 µM (inactive). The GI50 was 11.3 µM (inactive) in test [7]; 5.42 µM (inactive) in test [8]; 4.83 µM (inactive) in test [9]; 13.6 µM (inactive) in test [10]; 13.8 µM (inactive) in [11]; 3.48 µM (inactive) in [12]. The GI50 in test [13] was 2.68 µM (inactive); in test [14], 12.4 µM (inactive); in [15], 14.9 µM (inactive); in test [16], 18.5 µM (inactive); in [17], 3.22 µM (inactive); in test [18], 3.96 µM (inactive). In addition, the values for the GI50 in test [19] and in [20] were 13.8 µM (inactive) and 6.7 µM (inactive), respectively.

Values taken from ChEMBL document CHEMBL1201862, “PubChem BioAssay data set” (2004).
